A word on the solubility: it is the dissolved amount per volume that the medium holds.

Like-named read-outs stand apart in the source and are kept apart here.

These results are taken from patent US10420764B2, “Pharmaceutical formulation of N-[5-[2-(3,5-dimethoxyphenyl)ethyl]-2H-pyrazol-3-YL]-4-[(3R,5S)-3 ,5-dimethylpiperazin-1-YL] benzamide” (AstraZeneca AB, priority 2012, dated 2019).

The nature of the data set: Solubility of Formula (I) in simulated gastric and fasted simulated intestinal fluid. The data set is classed as physicochemical. From the text:
Furthermore, we have observed that the compound of Formula (I) may form a viscous material at low pH, which has the effect of reducing the rate at which the drag dissolves. In order to achieve an acceptable rate and extent of dissolution across the physiological pH range, the earlier clinical formulation was manufactured using conditions designed to give a fine granule which, when compressed into tablet form would disperse rapidly upon administration. While this approach did result in an improvement in dissolution performance, ‘filming’ problems were experienced during manufacture. In addition, it was observed that the use of conventional lubricants such as magnesium stearate and sodium stearyl fumarate led to chemical degradation including impurity formation and/or complexation.

`COc1cc(CCc2cc(NC(=O)c3ccc(N4C[C@@H](C)N[C@@H](C)C4)cc3)n[nH]2)cc(OC)c1` [Formula (I), N-[5-[2-(3,5-dimethoxyphenyl)ethyl]-2H-pyrazol-3-yl]-4-[(3R,5S)-3,5-dimethylpiperazin-1-yl]benzamide]: the solubility (fasted simulated intestinal fluid, pH 6.5, fassif, read-out: solubility in fasted simulated intestinal fluid) is ~250 µg/mL and the solubility (simulated gastric fluid, pH 1.2, simulated gastric fluid, read-out: solubility in simulated gastric fluid) is ~5000 µg/mL.
